{
  "source": "paper PMC3284191",
  "about": "(Journal of Agricultural and Food Chemistry, 2012)",
  "target": "β-galactosidase LacZ from L. bulgaricus (nontagged) (Lactobacillus delbrueckii, UniProt Q1G9Z4)",
  "sequence (Q1G9Z4 2-1008)": "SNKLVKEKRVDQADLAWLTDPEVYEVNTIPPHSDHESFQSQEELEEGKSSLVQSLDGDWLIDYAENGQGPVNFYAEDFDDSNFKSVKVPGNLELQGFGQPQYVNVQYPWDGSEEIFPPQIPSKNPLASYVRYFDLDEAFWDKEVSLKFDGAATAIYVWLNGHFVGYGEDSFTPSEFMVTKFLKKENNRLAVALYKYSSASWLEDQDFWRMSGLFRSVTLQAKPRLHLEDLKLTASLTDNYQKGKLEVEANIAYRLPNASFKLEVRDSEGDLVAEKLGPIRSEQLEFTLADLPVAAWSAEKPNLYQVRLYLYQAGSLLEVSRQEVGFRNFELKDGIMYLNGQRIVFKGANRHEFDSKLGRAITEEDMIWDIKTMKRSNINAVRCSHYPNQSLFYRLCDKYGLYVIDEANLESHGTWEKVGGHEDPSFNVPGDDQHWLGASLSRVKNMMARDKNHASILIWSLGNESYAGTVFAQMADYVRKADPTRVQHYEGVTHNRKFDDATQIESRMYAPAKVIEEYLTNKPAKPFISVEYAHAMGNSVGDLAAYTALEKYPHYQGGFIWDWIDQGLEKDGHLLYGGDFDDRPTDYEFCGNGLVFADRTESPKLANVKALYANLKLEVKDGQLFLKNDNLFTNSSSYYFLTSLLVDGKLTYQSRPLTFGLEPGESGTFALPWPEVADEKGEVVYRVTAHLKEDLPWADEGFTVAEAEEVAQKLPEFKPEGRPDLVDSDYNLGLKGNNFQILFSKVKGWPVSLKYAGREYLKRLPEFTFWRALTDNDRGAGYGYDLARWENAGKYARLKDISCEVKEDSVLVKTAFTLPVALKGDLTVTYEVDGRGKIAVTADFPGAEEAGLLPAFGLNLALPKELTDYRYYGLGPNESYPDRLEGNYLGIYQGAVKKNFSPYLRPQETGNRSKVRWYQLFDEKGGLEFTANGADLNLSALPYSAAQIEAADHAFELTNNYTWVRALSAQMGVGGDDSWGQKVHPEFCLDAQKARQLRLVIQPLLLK",
  "experiment": "inhibition of oNPG hydrolysis, nonlinear regression",
  "type": "biochemical",
  "settings": "read-out: nontagged LacZ; substrate oNPG; 50 mM sodium phosphate, pH 6.5, 30 °C; competitive",
  "data": [
    {"smiles": "OC[C@H]1OC(O)[C@H](O)[C@@H](O)[C@H]1O", "note": "(stereo partly drawn) [D-galactose]", "values": [
      {"measurement": "Ki", "value": "9.52 ± 1.54", "unit": "mM"}
    ]}
  ]
}
